In article PMC11876601 (Molecular Systems Biology, 2025):
Several values for one entry are separate records, joined by “and”; a condition that tells them apart may be missing. Equal values may be shown once. Read-outs that look alike come from different tables or passages of the source.

Assays:
WEE1 = conditions: WEE1, 5 cell line mix lysate, Kinobeads ε, ref Reinecke et al. (2023), cited from earlier work
SIK3 = test system: SIK3; design: method as in Reinecke et al. (2023); conditions: SIK3, 5 cell line mix lysate, Kinobeads ε, ref Reinecke et al. (2023), cited from earlier work
PRKAA2 = test system: PRKAA2; design: method as in Reinecke et al. (2023); conditions: PRKAA2, 5 cell line mix lysate, Kinobeads ε, ref Reinecke et al. (2023), cited from earlier work
INCENP = molecular target: INCENP; design: method as in Reinecke et al. (2023); conditions: 5 cell line mix lysate, Kinobeads ε, ref Reinecke et al. (2023), cited from earlier work
PDO B678 = experiment: PDO viability assay (CellTiter-Glo, 72 h); format: cell-based, human
Procedure: (§1) Primary patient-derived PDAC organoid (PDO) experiments were performed in the laboratories of Prof. Maximilian Reichert (University Hospital of the TU Munich, Germany, PDO set 1: B250, B535, B678) and Prof. Jens T. Siveke (University Hospital Essen, Germany; PDO set 2: UME008, UME012, UME051, UME053, UME060, UME061). PDOs were generated from surgical resection, EUS-guided fine needle biopsy (EUS-FNB), or ascites (Appendix Table S2). Surgical specimens were first minced with a sterile scalpel and subsequently washed with Anti-Anti solution and washing medium (PDO set 1), or vice versa (PDO set 2; Appendix Table S3). Biopsy samples were directly washed with an Anti-Anti solution and washing medium. Samples were digested using 1 ml of digestion medium at 37 °C while shaking, and the enzymatic reaction was stopped by adding 15 ml of washing medium (Appendix Table S3). If samples of PDO set 1 were blood-stained, tissue pellets were first incubated with ACK lysing buffer/red blood cells lysis buffer (Thermo Fisher Scientific) for 5 min and then digested using TrypLE (Thermo Fisher Scientific). The reversed procedure was applied for blood-stained samples of PDO set 2. For PDO generation from ascites, the material was first spun down at 500 × g for 5 min. Then, washing medium was added and the suspension was centrifuged at 300 × g for 5 min. If the pellet was blood-stained, ACK lysis buffer was added and incubated at room temperature.
(§2) For viability assays in PDOs, confluent organoids were removed from medium, and Matrigel was dissolved by adding 200 μl (PDO set 1) or 2 ml (PDO set 2) of Cell Recovery Solution (Corning), and additionally 500 μl of DPBS (PDO set 1 only). Samples were transferred into a falcon and incubated on ice for 30 min, followed by centrifugation at 300 × g at 4 °C for 5 min (after adding 10 ml washing medium for PDO set 2). Subsequently, TrypLE Express Enzyme (Thermo Fisher) was added to cell pellets and incubated for 2 × 5 min at 37 °C. The enzymatic reaction was quenched by DPBS (PDO set 1) or washing medium (PDO set 2), and samples were washed by centrifugation at 300 × g at 4 °C for 5 min. Five hundred cells/well were seeded in 384-well plates (Corning) in 50 μl of PDO medium containing 10% Matrigel. To allow PDO generation, cells were incubated for 4 days at 37 °C and 5% CO2. […] Experiments were pipetted manually (PDO set 1) or automatically using a TECAN D300e Digital Dispenser (HP; PDO set 2). Treatments were performed in eight replicates, except for PDO PPES045 (quadruplicates). After 72 h, cell viability was measured using the CellTiter-Glo Luminescent Cell Viability Assay (Promega) diluted 1:5 in the final volume of the well. After 20 min of incubation at room temperature under gentle shaking, the acquisition was performed in the microplate reader VantaSTAR (BMG Labtech) using 3000 gain for the amplification measurement of a detected signal (PDO set 1) or the Spark Multimode microplate reader (TECAN) at 800 ms integration time (PDO set 2).

PDO UME008 = experiment: PDO viability assay (CellTiter-Glo, 72 h); format: cell-based, human;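 for Curve top: fraction of plate-wise median vehicle signal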
Procedure: as §1, §2

PDO B535 = experiment: PDO viability assay (CellTiter-Glo, 72 h); format: cell-based, human; conditions: for pEC50: single replicates R1-R8
Procedure: as §1, §2

PDO UME060 = experiment: PDO viability assay (CellTiter-Glo, 72 h); format: cell-based, human;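 for Curve top: fraction of plate-wise median vehicle signal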
Procedure: as §1, §2

PDO B250 = experiment: PDO viability assay (CellTiter-Glo, 72 h); format: cell-based, human; conditions: for pEC50: single replicates R1-R8
Procedure: as §1, §2

[1] = Experiment GEM+ATRi_dose1 (ATRi = Elimusertib), single replicates R1-R8, read-out: EC50
[2] = Homo sapiens, Experiment GEM (GEM alone), mean of replicates, read-out: EC50 mean
[3] = Homo sapiens, Experiment GEM+ATRi_dose1 (ATRi = Elimusertib), mean of replicates, read-out: EC50 mean
[4] = Homo sapiens, Experiment GEM+ATRi_dose2 (ATRi = Elimusertib), mean of replicates, read-out: EC50 mean
[5] = Homo sapiens, Experiment GEM+ATRi_dose3 (ATRi = Elimusertib), mean of replicates, read-out: EC50 mean
[6] = Homo sapiens, GEM alone, read-out: EC50 mean
[7] = PDO UME008, GEM + Elimusertib (ATRi) dose1, per replicate
[8] = PDO UME008, GEM + Elimusertib (ATRi) dose2, per replicate
[9] = PDO UME008, GEM + Elimusertib (ATRi) dose3, per replicate
[10] = PDO UME008, GEM alone, per replicate
[11] = Experiment GEM (GEM alone), single replicates R1-R8, read-out: EC50
[12] = Experiment GEM+ATRi_dose1 (ATRi = Elimusertib)

COc1cc(N2CCC(N3CCN(C)CC3)CC2)ccc1Nc1ncc(Cl)c(Nc2ccccc2P(C)(C)=O)n1 [Brigatinib]
EC50 (WEE1): 1950 nM
pKDapp (WEE1): 5.91
Kd (WEE1; read-out: KDapp): 1240 nM
EC50 (SIK3): 1770 nM
pKDapp (SIK3): 5.84
Kd (SIK3; read-out: KDapp): 1450 nM
EC50 (PRKAA2): 1160 nM
pKDapp (PRKAA2): 6.28
Kd (PRKAA2; read-out: KDapp): 527 nM
Kd (INCENP; read-out: KDapp): 1030 nM
EC50 (INCENP): 1160 nM
pKDapp (INCENP): 5.99

Nc1ccn([C@@H]2O[C@H](CO)[C@@H](O)C2(F)F)c(=O)n1 [GEM, Gemcitabine]
pEC50 (PDO B678; Experiment GEM+ATRi_dose1 (ATRi = Elimusertib), single replicates R1-R8): 6.49 and 6.68 and 7.12 and 6.42 and 6.56 and 6.26
EC50 (PDO B678; [1]): 321 nM and 209 nM and 76.6 nM and 382 nM and 273 nM and 548 nM and 379 nM
EC50 (PDO B678; [2]): 247 nM
EC50 (PDO B678; [3]): 313 nM
EC50 (PDO B678; [4]): 156 nM
EC50 (PDO B678; [5]): 209 nM
EC50 (PDO B678; [6]): 247 nM
EC50 (PDO UME008; Homo sapiens, PDO UME008, GEM + Elimusertib (ATRi) dose1, mean of replicates, read-out: EC50 mean): 5.72 nM
EC50 (PDO UME008; Homo sapiens, PDO UME008, GEM + Elimusertib (ATRi) dose1, per replicate, read-out: EC50): 5.99 nM
EC50 (PDO UME008; Homo sapiens, PDO UME008, GEM + Elimusertib (ATRi) dose1, per replicate, read-out: pEC50 (converted)): 6.03 nM
EC50 (PDO UME008; Homo sapiens, PDO UME008, GEM alone, mean of replicates, read-out: EC50 mean): 26.4 nM
EC50 (PDO UME008; Homo sapiens, PDO UME008, GEM alone, read-out: EC50 mean): 26.4 nM
EC50 (PDO UME008; Homo sapiens, SET-2, PDO UME008 (PDO set 2), Experiment GEM (GEM alone), mean of replicates, read-out: EC50 mean): 26.4 nM
EC50 (PDO UME008; Homo sapiens, SET-2, PDO UME008 (PDO set 2), Experiment GEM (GEM alone), single replicates, read-out: EC50): 35.3 nM
EC50 (PDO UME008; Homo sapiens, SET-2, PDO UME008 (PDO set 2), Experiment GEM (GEM alone), single replicates, read-out: pEC50 (converted)): 35.5 nM
EC50 (PDO UME008; Homo sapiens, SET-2, PDO UME008 (PDO set 2), Experiment GEM+ATRi_dose1 (ATRi = Elimusertib), mean of replicates, read-out: EC50 mean): 5.72 nM
EC50 (PDO UME008; Homo sapiens, SET-2, PDO UME008 (PDO set 2), Experiment GEM+ATRi_dose1 (ATRi = Elimusertib), single replicates, read-out: EC50): 4.47 nM
EC50 (PDO UME008; Homo sapiens, SET-2, PDO UME008 (PDO set 2), Experiment GEM+ATRi_dose1 (ATRi = Elimusertib), single replicates, read-out: pEC50 (converted)): 4.47 nM
Curve slope (PDO UME008; [7]): 0.15 and 0.09 and 0.06 and 0.14 and 0.13 and 0.10 and 0.08
Curve top (PDO UME008; [7]): 0.83 and 1.39 and 1.43 and 1.58
pEC50 (PDO UME008; [7]): 8.33 and 8.31 and 8.10 and 8.30 and 8.17
EC50 (PDO UME008; PDO UME008, GEM + Elimusertib (ATRi) dose1, per replicate, read-out: EC50): 4.68 nM and 4.87 nM and 6.08 nM and 7.93 nM and 4.97 nM and 6.77 nM
Curve slope (PDO UME008; [8]): 0.07 and 0.08 and 0.13 and 0.0742 and 0.12
Curve top (PDO UME008; [8]): 1.01 and 1.56 and 1.34 and 1.60 and 1.61 and 1.89
pEC50 (PDO UME008; [8]): 8.24 and 8.33 and 8.77
EC50 (PDO UME008; PDO UME008, GEM + Elimusertib (ATRi) dose2, per replicate, read-out: EC50): 5.77 nM and 3.11 nM and 4.73 nM and 1.69 nM
Curve slope (PDO UME008; [9]): 0.10 and 0.07 and 0.08 and 0.0752 and 0.11 and 0.09
Curve top (PDO UME008; [9]): 1.25 and 0.88 and 1.26
pEC50 (PDO UME008; [9]): 8.27 and 8.67 and 8.63 and 8.23 and 8.28
EC50 (PDO UME008; PDO UME008, GEM + Elimusertib (ATRi) dose3, per replicate, read-out: EC50): 2.48 nM and 5.32 nM and 2.13 nM and 3.3 nM and 2.33 nM and 5.9 nM and 5.31 nM
Curve slope (PDO UME008; [10]): 0.43 and 0.44 and 0.47 and 0.36 and 0.39
Curve top (PDO UME008; [10]): 0.95 and 1.46
pEC50 (PDO UME008; [10]): 7.56 and 8.15 and 7.44 and 7.69 and 7.32 and 8.00
EC50 (PDO UME008; PDO UME008, GEM alone, per replicate, read-out: EC50): 27.4 nM and 7.09 nM and 36.6 nM and 20.4 nM and 48 nM and 10.1 nM
pEC50 (PDO B535; Experiment GEM (GEM alone)): 8.39 and 8.78 and 8.35 and 8.91
EC50 (PDO B535; [11]): 4.05 nM and 1.64 nM and 2.44 nM and 4.43 nM and 1.23 nM
pEC50 (PDO B535; [12]): 8.24 and 8.20 and 8.63 and 8.99 and 8.75 and 8.16
EC50 (PDO B535; [1]): 5.81 nM and 6.33 nM and 3.06 nM and 2.33 nM and 1.02 nM and 1.78 nM and 6.97 nM
pEC50 (PDO B535; Experiment GEM+ATRi_dose3 (ATRi = Elimusertib)): 9.08 and 8.91 and 9.48 and 9.75 and 9.91 and 9.06
EC50 (PDO B535; [3]): 3.9 nM
EC50 (PDO B535; [5]): 0.59 nM
EC50 (PDO UME060; Homo sapiens, PDO UME060, GEM alone, read-out: EC50 mean): 23.4 nM
EC50 (PDO UME060; Homo sapiens, PDO UME060, experiment GEM (GEM alone), mean of replicates, read-out: EC50 mean): 23.4 nM
EC50 (PDO UME060; PDO UME060, PDO set 2, experiment GEM (GEM alone), single replicates, read-out: EC50): 31.8 nM and 30.4 nM and 22.2 nM and 14.8 nM and 21.8 nM and 39.5 nM and 17.7 nM and 9.22 nM
Curve top (PDO UME060; PDO UME060, experiment GEM (GEM alone), curve fit): 1.00 and 0.88 and 1.04 and 0.95 and 1.07 and 0.83 and 1.30
pEC50 (PDO UME060; PDO UME060, experiment GEM (GEM alone), single replicates): 7.50 and 7.52 and 7.65 and 7.83 and 7.66 and 7.40 and 7.75 and 8.04
pEC50 (PDO B250; Experiment GEM (GEM alone)): 6.73 and 6.37 and 6.71 and 6.62 and 6.75 and 6.40 and 6.58 and 6.41
EC50 (PDO B250; [11]): 185 nM and 427 nM and 194 nM and 239 nM and 177 nM and 398 nM and 263 nM and 393 nM
pEC50 (PDO B250; [12]): 6.29 and 6.41 and 6.85 and 6.58 and 6.87 and 7.26 and 6.73 and 6.74
EC50 (PDO B250; [1]): 516 nM and 389 nM and 140 nM and 262 nM and 135 nM and 54.9 nM and 185 nM and 183 nM
EC50 (PDO B250; [2]): 284 nM
EC50 (PDO B250; [3]): 233 nM
EC50 (PDO B250; [4]): 265 nM
EC50 (PDO B250; [6]): 284 nM
